Source: patent US20240408216A1, “PROTEIN INHIBITOR OR DEGRADING AGENT, PHARMACEUTICAL COMPOSITION CONTAINING SAME AND PHARMACEUTICAL USE” (JING MEDICINE TECHNOLOGY (SHANGHAI) LTD., priority 2021, published 2024)

Tests used:
DT = test: Cell proliferation IC50 assay (Cell Titer GLO), DT cells; assay type: cell-based; conditions: Mus musculus; Table 7; DT cells (BaF3 with EGFR mutant), 72 h
Procedure: (§1) IC50 of compounds in the present invention was determined by Cell Titer GLO reagent from Promega. The procedures are as follows:
(§2) Tumor cells were cultured in specified medium in an incubator at 37° C. and 5% CO2. The cells were passaged periodically. Cells at the logarithmic growth phase were collected for plating at a density of 2000-4000 cells/well. The next day, the compounds of the present invention were serially diluted and added to the cells, with DMSO being the negative control and the culture media without cells being the blank control. The plate was incubated in the incubator for 72 h. The cell viability assay was performed by adding the detection reagents to the cell culture media according to Cell Titer GLO reagent instructions and detecting luminescent signals on an EnVision microplate reader (PerkinElmer).
(§3) Inhibition of cell growth by the compounds of the present invention was plotted by Prism Graphpad software for statistically calculating the IC50 of the compound of the present invention.

BaF3 (EGFR WT) = test: Cell proliferation IC50 assay (Cell Titer GLO), BaF3 WT cells; assay type: cell-based; conditions: Mus musculus, Ba/F3 EGFR, Table 5, 10 ng/ml EGF, 72 h
Procedure, shortened: (§4)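 Cells plated at 2000-4000 per well, next day given serially diluted compound, then grown 72 h at 37 °C, 5% CO2. Viability by CellTiter-Glo luminescence versus DMSO control; IC50 from growth-inhibition curves.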

[1] = system: BaF3 (EGFR Del19/T790M/C797S); test: Cell proliferation IC50 assay (Cell Titer GLO), BaF3 DTC cells; assay type: cell-based; conditions: Mus musculus, Ba/F3 EGFR-Del19/T790M/C797S, Table 5, 72 h
Procedure, shortened: as §4

LT = test: Cell proliferation IC50 assay (Cell Titer GLO), LT cells; assay type: cell-based; conditions: Mus musculus; Table 7; LT cells (BaF3 with EGFR mutant), 72 h
Procedure: as §1, §2, §3

BaF3 (EGFR L858R/C797S) = BaF3 (EGFR L858R/C797S) (Homo sapiens, UniProt P00533, C797S/L858R, cells depend on it); test: Cell proliferation IC50 assay (Cell Titer GLO), BaF3 LC cells; assay type: cell-based, mouse; conditions: Table 7, 72 h
Chain of BaF3 (EGFR L858R/C797S) (P00533 whole entry C797S/L858R): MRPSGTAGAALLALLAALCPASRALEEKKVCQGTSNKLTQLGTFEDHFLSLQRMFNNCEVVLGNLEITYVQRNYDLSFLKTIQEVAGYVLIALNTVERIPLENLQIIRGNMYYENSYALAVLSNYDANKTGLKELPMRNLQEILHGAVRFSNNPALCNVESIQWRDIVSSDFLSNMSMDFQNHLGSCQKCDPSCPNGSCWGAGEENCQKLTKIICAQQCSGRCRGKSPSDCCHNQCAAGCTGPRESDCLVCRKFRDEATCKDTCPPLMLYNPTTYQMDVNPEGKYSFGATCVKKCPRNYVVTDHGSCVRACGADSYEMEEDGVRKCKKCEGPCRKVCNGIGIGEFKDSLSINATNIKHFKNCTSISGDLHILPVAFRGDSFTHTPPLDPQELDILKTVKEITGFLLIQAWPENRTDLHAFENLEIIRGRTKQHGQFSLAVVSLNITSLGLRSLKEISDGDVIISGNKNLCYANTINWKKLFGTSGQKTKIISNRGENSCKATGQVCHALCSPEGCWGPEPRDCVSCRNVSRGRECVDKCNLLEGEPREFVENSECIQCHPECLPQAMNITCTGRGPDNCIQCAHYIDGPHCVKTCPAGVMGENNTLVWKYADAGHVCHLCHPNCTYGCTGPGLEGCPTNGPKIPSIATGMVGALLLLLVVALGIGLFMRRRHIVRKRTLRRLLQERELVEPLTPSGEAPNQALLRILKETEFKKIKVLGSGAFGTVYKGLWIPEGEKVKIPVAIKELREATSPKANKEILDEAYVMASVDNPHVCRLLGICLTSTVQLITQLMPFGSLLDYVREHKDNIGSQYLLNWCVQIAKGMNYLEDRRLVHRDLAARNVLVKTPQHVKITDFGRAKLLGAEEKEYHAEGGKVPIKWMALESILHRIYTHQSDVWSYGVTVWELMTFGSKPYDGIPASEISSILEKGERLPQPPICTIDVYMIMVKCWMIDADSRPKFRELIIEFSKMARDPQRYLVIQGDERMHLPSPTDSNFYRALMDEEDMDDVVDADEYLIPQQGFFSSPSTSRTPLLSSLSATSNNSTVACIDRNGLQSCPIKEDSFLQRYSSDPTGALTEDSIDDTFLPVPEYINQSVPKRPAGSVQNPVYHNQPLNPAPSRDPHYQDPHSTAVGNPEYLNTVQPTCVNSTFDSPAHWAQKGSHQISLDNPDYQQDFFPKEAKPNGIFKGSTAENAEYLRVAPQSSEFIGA
Procedure: as §1, §2, §3

BaF3 (EGFR Del19) = BaF3 (EGFR Del19) (Homo sapiens, UniProt P00533, cells depend on it, form not given); test: Cell proliferation IC50 assay (Cell Titer GLO), BaF3 D cells; assay type: cell-based, mouse; conditions: Table 7, 72 h
Chain of BaF3 (EGFR Del19) (P00533 with tags, fused parts or gaps DEL746-750): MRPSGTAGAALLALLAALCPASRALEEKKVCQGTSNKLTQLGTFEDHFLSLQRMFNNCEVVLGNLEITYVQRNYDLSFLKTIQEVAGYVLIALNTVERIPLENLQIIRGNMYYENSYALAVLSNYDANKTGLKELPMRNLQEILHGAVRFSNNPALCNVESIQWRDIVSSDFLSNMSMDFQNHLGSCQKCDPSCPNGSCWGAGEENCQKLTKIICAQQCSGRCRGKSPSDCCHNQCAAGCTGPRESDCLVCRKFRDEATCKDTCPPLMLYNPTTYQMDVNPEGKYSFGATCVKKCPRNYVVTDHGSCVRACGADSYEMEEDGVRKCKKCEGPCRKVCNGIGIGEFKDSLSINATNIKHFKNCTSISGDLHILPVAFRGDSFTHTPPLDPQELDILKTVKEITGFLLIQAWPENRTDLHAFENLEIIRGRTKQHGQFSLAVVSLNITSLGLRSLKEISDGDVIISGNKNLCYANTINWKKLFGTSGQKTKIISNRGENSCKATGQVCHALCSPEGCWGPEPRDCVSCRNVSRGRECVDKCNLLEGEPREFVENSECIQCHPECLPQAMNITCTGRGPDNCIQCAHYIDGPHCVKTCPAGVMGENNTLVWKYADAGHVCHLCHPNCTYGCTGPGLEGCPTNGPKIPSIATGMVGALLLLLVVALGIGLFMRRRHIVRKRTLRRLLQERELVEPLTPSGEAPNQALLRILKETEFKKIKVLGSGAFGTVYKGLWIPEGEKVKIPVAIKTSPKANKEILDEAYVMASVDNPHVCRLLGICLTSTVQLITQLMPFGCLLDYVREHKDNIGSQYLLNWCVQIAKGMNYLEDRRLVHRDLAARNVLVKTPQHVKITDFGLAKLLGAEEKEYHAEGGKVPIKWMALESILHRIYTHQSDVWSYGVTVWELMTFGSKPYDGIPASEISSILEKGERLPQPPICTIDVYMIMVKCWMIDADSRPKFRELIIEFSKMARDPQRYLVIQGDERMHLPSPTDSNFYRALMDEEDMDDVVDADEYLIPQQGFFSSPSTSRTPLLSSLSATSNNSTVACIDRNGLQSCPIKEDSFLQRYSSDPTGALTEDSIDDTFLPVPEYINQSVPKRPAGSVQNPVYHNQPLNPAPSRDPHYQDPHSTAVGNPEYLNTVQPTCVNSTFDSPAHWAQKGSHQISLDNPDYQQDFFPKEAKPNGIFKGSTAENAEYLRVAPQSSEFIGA
Procedure: as §1, §2, §3

BaF3 (EGFR L858R) = BaF3 (EGFR L858R) (Homo sapiens, UniProt P00533, L858R, cells depend on it); test: Cell proliferation IC50 assay (Cell Titer GLO), BaF3 L cells; assay type: cell-based, mouse; conditions: Table 7, 72 h
Procedure: as §1, §2, §3

human EGFR-DTC = test: EGFR protein abundance assay (Western blotting), EGFR-DTC; assay type: cell-based; conditions: Ba/F3 cells expressing human EGFR-DTC, 24 h, Western blot
Procedure: (§5) Mouse Ba/F3 cells stably expressing human EGFR-DTC, EGFR-LTC, or EGFR-DC were transferred to Petri dishes with RPMI-1640 medium (Gibco, Product No. 11875093) containing 10% fetal bovine serum (FBS, Biological Industries, Product No. 04-001-1A) and 0.1% penicillin/streptomycin (P/S) and incubated in an aseptic incubator at 37° C., 95% relative humidity, and 5% CO2. Cells at the logarithmic growth phase were taken and seeded at a density of 50000 cells/well in 12-well plates (Corning, Product No. 3513) containing 1 mL of medium per well. After 24 h, the compounds disclosed herein with different concentrations were added to the wells at a final DMSO concentration of 0.1%. After 24 h, cells were lysed in SDS lysis buffer (1.45 g of SDS, 0.2 g of Tris base, 6 mL of glycerol, 20 mg of bromophenol blue, 310 mg DTT; brought to 40 mL with d2H2O), and the EGFR levels were detected and analyzed by Western Blotting (immunoblotting) using standard molecular biological techniques. Cell lysates were boiled at 95° C. for 8 min, mixed and centrifuged. The total cell proteins in the lysates were subjected to SDS-PAGE (GenScript, Product No. M00654), transferred to NC membranes (GE, Product No. 1060002) by blotting, incubated in a blocking buffer (TAKARA, Product No. T7131A) at room temperature for 60 min, and co-incubated overnight at 4° C. with the following primary antibodies: anti-EGFR (#4267S, 1:1000), anti-phoso-EGFR (#3777S, 1:1000), anti-GAPDH (#5174S, 1:10000), anti-Actin (#5125 S, 1:10000) (all purchased from Cell Signaling Technology). The samples were washed three times with TBST at room temperature, each for 10 min, and then incubated for 60 minutes in a blocking buffer containing a secondary antibody (#7074S, 1:10000, purchased from Cell Signaling Technology) at room temperature. The samples were washed three times with TBST at room temperature, each for 10 min. Chemiluminescent substrates were added, and an Azure c300 system was used for imaging.

human EGFR-LTC = biological target: T1, human EGFR-LTC (Homo sapiens, UniProt P00533, C797S/L858R/T790M); test: EGFR protein abundance assay (Western blotting), EGFR-LTC; assay type: cell-based; conditions: 24 h, Western blot
T1 construct: expressed in transfected cells
T1 sequence (P00533 25-1210 T790M/C797S/L858R): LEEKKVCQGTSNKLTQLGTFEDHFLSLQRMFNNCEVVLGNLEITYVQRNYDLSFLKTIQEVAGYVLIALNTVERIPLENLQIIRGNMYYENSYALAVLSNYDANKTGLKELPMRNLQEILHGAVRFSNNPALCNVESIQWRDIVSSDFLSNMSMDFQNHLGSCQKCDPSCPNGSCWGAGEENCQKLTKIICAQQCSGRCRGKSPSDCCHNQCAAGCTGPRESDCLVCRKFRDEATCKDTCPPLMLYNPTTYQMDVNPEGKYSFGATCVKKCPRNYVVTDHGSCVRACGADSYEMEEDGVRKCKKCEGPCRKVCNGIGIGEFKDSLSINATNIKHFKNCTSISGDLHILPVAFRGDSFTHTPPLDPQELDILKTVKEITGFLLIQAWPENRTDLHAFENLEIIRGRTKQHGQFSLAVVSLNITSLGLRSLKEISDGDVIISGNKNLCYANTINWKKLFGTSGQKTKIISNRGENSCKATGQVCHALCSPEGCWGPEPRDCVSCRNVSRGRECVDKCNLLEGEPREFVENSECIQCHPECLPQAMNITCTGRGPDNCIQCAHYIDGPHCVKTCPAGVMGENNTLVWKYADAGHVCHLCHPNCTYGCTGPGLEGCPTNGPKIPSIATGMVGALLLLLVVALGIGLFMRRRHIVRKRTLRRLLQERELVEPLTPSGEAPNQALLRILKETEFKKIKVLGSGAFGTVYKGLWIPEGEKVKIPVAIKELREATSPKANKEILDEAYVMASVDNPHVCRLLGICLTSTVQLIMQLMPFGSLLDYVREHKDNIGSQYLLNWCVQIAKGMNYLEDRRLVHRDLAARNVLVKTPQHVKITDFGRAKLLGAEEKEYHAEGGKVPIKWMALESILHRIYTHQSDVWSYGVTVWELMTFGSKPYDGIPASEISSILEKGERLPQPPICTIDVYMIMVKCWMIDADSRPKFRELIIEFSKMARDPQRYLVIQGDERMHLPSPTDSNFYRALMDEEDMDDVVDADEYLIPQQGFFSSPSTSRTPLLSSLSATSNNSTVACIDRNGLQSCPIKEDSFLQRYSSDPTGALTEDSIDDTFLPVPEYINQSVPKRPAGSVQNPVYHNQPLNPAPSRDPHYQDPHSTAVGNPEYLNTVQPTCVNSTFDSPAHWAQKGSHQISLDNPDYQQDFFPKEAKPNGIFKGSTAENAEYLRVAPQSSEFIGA
Procedure: as §5

BaF3 (EGFR Del19/C797S) = biological target: T2, BaF3 (EGFR Del19/C797S) (Homo sapiens, UniProt P00533, C797S, cells depend on it, form not given); test: Cell proliferation IC50 assay (Cell Titer GLO), BaF3 DC cells; assay type: cell-based, mouse; conditions: Table 7, 72 h
T2 construct: BaF3 (EGFR Del19/C797S)|DC|RPMI1640 + 10% FBS
T2 sequence (P00533 with tags, fused parts or gaps DEL746-750/C797S, form open): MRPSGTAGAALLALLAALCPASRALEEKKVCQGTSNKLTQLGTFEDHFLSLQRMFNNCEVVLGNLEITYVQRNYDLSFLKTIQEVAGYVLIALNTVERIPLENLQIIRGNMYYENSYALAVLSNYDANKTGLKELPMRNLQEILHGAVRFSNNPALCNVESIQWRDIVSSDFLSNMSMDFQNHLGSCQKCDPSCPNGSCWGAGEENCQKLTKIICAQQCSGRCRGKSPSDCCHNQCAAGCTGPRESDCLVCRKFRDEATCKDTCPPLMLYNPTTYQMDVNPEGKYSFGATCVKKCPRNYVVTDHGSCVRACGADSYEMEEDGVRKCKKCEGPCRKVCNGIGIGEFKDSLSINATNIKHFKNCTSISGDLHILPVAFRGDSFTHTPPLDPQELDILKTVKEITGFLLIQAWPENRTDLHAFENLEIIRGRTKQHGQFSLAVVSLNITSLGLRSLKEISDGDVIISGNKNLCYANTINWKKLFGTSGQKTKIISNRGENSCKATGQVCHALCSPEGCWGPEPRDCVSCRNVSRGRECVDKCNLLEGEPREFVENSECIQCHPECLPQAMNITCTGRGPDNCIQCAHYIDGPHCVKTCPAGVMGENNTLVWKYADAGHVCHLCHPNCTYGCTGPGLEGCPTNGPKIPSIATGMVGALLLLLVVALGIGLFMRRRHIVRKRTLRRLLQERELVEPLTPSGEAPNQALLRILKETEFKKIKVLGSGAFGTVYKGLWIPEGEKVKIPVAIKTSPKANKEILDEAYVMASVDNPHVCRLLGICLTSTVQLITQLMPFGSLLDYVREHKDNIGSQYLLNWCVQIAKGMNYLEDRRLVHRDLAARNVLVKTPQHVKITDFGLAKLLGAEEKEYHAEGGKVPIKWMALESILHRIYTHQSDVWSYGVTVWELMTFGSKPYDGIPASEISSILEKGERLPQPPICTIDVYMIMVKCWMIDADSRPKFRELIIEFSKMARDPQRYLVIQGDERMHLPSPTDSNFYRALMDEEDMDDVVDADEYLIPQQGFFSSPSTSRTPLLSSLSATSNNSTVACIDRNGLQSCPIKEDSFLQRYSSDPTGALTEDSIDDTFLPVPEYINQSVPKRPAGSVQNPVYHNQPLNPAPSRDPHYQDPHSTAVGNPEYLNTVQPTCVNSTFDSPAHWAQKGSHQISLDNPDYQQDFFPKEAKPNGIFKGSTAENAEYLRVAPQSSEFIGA
Procedure, shortened: as §4

human EGFR-DC = test: EGFR protein abundance assay (Western blotting), EGFR-DC; assay type: cell-based; conditions: Ba/F3 cells expressing human EGFR-DC, 24 h, Western blot
Procedure: as §5

A431 = test: Cell proliferation IC50 assay (Cell Titer GLO), A431 cells; assay type: cell-based; conditions: Homo sapiens, A-431; Table 5; A431, 72 h; read-out: A431 IC50
Procedure, shortened: as §4

[2] = system: BaF3 (EGFR L858R/T790M/C797S); test: Cell proliferation IC50 assay (Cell Titer GLO), BaF3 LTC cells; assay type: cell-based; conditions: Mus musculus, Ba/F3 EGFR, Table 5, 72 h
Procedure, shortened: as §4

BaF3 patent = test: Cell proliferation IC50 assay (Cell Titer GLO), BaF3 parental cells; assay type: cell-based; conditions: Mus musculus, Table 5, 10 ng/ml mIL3, 72 h
Procedure: as §1, §2, §3

In the case of `CCc1cc(Nc2ncc(Cl)c(Nc3ccccc3P(C)(C)=O)n2)c(OC)cc1N1CCC(N2CCN(CCC#Cc3cccc4c3CN(C3CCC(=O)NC3=O)C4=O)CC2)CC1` (single isomer, unassigned) [Example E4], the IC50 (DT) is reported as 5.5 nM, the IC50 (BaF3 (EGFR WT)) is reported as > 4000 nM and the IC50 [1] is reported as 6.6 nM. It also gave an IC50 (LT) of 7.4 nM, a GI50 (BaF3 (EGFR L858R/C797S)) of 23 nM and a GI50 (BaF3 (EGFR Del19)) of 2.1 nM. The GI50 (BaF3 (EGFR L858R)) was 6.7 nM, the DC50 (human EGFR-DTC) was 2.27 nM and the “EGFR-DTC Dmax” value (human EGFR-DTC) was 96%. For the same compound, the DC50 (human EGFR-LTC; Ba/F3 cells expressing human EGFR-LTC) was 6.26 nM, the Dmax (human EGFR-LTC; BaF3, Ba/F3 cells expressing human EGFR-LTC) was 91% and the IC50 (BaF3 (EGFR Del19/C797S)) was 4.8 nM. The DC50 (human EGFR-DC) was 18.6 nM, the “EGFR-DC Dmax” value (human EGFR-DC) was 75% and the IC50 (A431) was 2060 nM. For the same compound, the IC50 [2] was 37.6 nM and the IC50 (BaF3 patent) was > 4000 nM.
